From ChEMBL document CHEMBL1201862, “PubChem BioAssay data set” (2004)
Active and inactive are the calls of the source. For most assays here, no stated cut-off is given here; in the data, actives have a measured EC50 and inactives only a lower limit.

Columns and labels:
Ephrin type-A receptor 4 = Ephrin type-A receptor 4 (Mus musculus, UniProt Q03137); assay: inhibitors of EphA4 binding to KYL peptide, primary screen, biochemical, colorimetric, mouse EphA4 (AID 689); type: functional
[1] = Luminescence Cell-Based Dose Confirmation to Identify Activators of 5'UTR Stem-Loop Driven Alpha-Synuclein mRNA Translation in H4 Neuroglioblastoma Cells. [Related pubchem assays: 1829 (Project Summary), 1814 (Primary HTS)]; type: functional
[2] = Luminescence Cell-Based Dose Response to Identify Activators of Luciferase Translation or Activity in H4-C Neuroglioblastoma Cells. [Related pubchem assays: 1829 (Project Summary), 1814 (Primary HTS)]; type: functional
[3] = Luminescence Cell-Based Dose Response HTS to Identify Activators of Luciferase Translation or Activity in H4 […] Cells. [Related pubchem assays: 1829 (Project Summary), 1814 (Primary HTS)]; type: functional
[4] = Luminescence Cell-Based Dose Response to Identify Activators of 5'UTR Stem-Loop Driven Prion Protein mRNA Translation in H4-C Neuroglioblastoma Cells. [Related pubchem assays: 1829 (Project Summary), 1814 (Primary HTS)]; type: functional
H4 = assay: Luminescence Cell-Based Dose Response HTS to Identify Activators of 5'UTR Stem-Loop Driven Prion Protein mRNA Translation in H4 Neuroglioblastoma Cells. [Related pubchem assays: 1829 (Project Summary), 1814 (Primary HTS)]; type: functional; conditions: Homo sapiens
Protein RecA = biological target: T1, Protein RecA (Mycobacterium tuberculosis, UniProt P9WHJ3); assay: Fluorescence Cell-Free Homogeneous Dose Retest to Identify Inhibitors of RecA-Intein Splicing Activity. [Related pubchem assays (depositor defined):AID2097, AID2223, AID489010, AID492950]; type: functional
T1 sequence (P9WHJ3 whole entry): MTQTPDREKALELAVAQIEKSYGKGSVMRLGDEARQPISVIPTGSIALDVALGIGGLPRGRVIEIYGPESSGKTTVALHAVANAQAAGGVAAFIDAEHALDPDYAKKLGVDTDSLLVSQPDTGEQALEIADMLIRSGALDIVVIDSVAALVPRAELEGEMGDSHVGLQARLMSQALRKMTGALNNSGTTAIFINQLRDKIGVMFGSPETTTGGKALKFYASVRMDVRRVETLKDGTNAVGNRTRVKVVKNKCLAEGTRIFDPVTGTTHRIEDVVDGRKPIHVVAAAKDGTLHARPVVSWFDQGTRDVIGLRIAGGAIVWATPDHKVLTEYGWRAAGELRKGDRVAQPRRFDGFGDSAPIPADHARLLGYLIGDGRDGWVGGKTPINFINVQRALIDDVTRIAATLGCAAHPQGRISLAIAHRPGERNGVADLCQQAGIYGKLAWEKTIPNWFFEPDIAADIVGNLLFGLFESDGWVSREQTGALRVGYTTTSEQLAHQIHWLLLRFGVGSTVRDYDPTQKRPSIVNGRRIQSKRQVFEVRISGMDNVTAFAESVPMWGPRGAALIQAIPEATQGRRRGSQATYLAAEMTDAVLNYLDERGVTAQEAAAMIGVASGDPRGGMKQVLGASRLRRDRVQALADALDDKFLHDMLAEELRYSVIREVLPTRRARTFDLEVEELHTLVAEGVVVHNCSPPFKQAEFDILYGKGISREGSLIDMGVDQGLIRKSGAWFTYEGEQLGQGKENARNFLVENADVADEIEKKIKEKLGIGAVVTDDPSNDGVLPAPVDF

[5] = biological target: Potassium voltage-gated channel subfamily KQT member 2 (Rattus norvegicus, UniProt O88943, W236L); assay: KCNQ2 channel potentiators, dose response, mechanism study for KCNQ2 potentiator project, cell-based, automated electrophysiology (AID 2603); type: functional
[6] = biological target: T2, Replicative DNA helicase DnaB (Mycobacterium tuberculosis, UniProt P9WMR3); assay: DnaB intein splicing inhibitors, dose response, biochemical, cell-free fluorescence (AID 449749); type: functional
T2 sequence (P9WMR3 whole entry): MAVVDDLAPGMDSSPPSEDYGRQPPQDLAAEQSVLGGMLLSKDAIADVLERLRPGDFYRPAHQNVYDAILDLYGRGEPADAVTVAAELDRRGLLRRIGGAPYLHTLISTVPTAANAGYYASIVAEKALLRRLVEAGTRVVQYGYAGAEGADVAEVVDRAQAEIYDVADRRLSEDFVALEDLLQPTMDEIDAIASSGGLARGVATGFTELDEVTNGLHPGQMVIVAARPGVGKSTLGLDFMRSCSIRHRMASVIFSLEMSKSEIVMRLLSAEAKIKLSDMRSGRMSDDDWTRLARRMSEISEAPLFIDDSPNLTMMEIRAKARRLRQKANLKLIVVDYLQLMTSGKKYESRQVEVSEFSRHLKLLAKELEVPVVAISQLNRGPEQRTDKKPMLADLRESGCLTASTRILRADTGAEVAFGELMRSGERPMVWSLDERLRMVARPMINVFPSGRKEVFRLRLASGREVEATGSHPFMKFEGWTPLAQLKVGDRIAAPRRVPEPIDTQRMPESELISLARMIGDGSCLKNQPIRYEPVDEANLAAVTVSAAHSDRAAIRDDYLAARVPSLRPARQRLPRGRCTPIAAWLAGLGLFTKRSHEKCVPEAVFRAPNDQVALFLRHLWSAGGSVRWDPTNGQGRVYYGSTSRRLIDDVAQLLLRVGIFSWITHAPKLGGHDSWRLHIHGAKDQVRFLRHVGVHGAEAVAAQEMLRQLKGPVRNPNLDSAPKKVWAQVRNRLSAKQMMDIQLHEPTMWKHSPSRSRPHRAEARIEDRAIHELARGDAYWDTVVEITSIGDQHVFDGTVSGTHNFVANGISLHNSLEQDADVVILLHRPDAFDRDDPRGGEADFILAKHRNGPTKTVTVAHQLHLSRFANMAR

Genome polyprotein = Genome polyprotein (dengue virus type 2, UniProt P29990); assay: Dengue-2 NS5 methyltransferase inhibitors, primary screen, biochemical, confirmation dose response (AID 588689); type: functional
Cytochrome P450 1A2 = biological target: T3, Cytochrome P450 1A2 (Homo sapiens, UniProt P05177);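 further: PubChem cytochrome P450 panel assay, CYP1A2 panel member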
T3 sequence (P05177 whole entry): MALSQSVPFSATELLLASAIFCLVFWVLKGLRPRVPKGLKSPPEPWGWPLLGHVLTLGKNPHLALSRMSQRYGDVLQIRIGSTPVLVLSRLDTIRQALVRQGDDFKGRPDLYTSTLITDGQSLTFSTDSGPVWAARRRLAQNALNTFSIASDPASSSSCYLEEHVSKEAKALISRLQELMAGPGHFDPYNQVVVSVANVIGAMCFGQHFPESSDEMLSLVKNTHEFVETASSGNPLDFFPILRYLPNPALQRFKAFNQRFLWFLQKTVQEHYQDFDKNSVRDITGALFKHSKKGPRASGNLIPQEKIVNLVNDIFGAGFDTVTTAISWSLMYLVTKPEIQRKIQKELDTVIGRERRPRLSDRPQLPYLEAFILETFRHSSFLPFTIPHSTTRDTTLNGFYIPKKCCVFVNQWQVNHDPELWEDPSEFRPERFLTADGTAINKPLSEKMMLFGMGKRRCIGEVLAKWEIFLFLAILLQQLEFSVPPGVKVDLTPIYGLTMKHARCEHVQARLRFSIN

Cytochrome P450 3A4 = Cytochrome P450 3A4 (Homo sapiens, UniProt P08684);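 further: CYP3A4 tested as one member of a cytochrome P450 panel screen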
BJ [7] = assay: cytotoxicity toward BJ-TERT-LT-ST fibroblasts, dose response, cell-based, RAS-independent, luminescence (AID 1935); type: functional; conditions: Homo sapiens;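 further: BJ fibroblasts immortalized with TERT plus LT and ST oncogenes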
[8] = biological target: T4, Zinc finger protein mex-5 (Caenorhabditis elegans, UniProt Q9XUB2); assay: MEX-5/TCR-2 RNA interaction inhibitors, dose response, biochemical, C. elegans, fluorescence polarization (AID 1960)
T4 sequence (Q9XUB2 whole entry): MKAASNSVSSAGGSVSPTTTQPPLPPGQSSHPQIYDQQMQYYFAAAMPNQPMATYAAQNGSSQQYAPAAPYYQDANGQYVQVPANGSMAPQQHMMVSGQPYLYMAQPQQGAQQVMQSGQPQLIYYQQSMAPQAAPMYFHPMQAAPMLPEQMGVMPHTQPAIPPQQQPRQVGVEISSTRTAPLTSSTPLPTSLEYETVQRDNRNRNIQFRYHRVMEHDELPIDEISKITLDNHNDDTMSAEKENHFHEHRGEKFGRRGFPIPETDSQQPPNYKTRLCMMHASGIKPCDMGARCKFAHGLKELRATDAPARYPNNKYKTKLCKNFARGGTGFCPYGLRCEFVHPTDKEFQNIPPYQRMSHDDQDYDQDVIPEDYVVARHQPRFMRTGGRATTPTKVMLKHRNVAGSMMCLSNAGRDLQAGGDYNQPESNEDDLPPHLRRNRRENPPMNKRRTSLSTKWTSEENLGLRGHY

Beta-galactosidase [9] = biological target: T5, Beta-galactosidase (Escherichia coli, UniProt Q8VNN2); type: functional
[10] = cytotoxicity toward DRD oncogenic fibroblasts, dose response, cell-based, non-viral oncogenic, luminescence (AID 1934); type: functional; conditions: Homo sapiens
[11] = biological target: Heat shock protein HSP 90-alpha (Homo sapiens, UniProt P07900); type: functional, organism-based
[12] = inhibitors of SNCA 5'UTR-driven translation, confirmation, luminescence, H4 neuroglioblastoma cells, dose confirmation (AID 2454); type: functional, cell-based;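 further: H4 neuroglioblastoma cells carrying an alpha-synuclein 5'UTR luciferase reporter; potency for inhibition of the luciferase signal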
[13] = inhibitors of firefly luciferase expression or activity, dose response, H4 neuroglioma cells, luminescence (AID 1990); type: functional, cell-based
[14] = luciferase reporter signal reduction – luminescence, H4-C neuroglioblastoma cells, dose response (AID 2458); type: functional, cell-based;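 further: H4 neuroglioblastoma cells stably carrying a luciferase reporter gene fusion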
[15] = Luminescence-based dose response cell-based high throughput screening assay for cytotoxic compounds using the IEC-6 intestinal epithelial cell line. [Related pubchem assays: 1858 (Summary AID.), 1825 (Counterscreen.), 1907 (Confirmation screen.)]; type: functional
[16] = inhibitors of SNCA 5'UTR-driven reporter translation, confirmation, H4 neuroglioma cells, luminescence (AID 1988); type: functional, cell-based
cells = type: functional, cell-based
BJ [17] = assay: cytotoxicity toward BJ-TERT fibroblasts, dose response, cell-based, RAS-independent, luminescence (AID 1933); type: functional; conditions: Homo sapiens
BJ [18] = assay: cells; type: functional, cell-based; conditions: Homo sapiens
[19] = Luminescence Cell-Based Dose Response HTS to Identify Inhibitors of 5'UTR Stem-Loop Driven Prion Protein mRNA Translation in H4 Neuroglioblastoma Cells. [Related pubchem assays: 1827 (Project Summary), 1813 (Primary HTS)]; type: functional
Beta-galactosidase [20] = biological target: T5, Beta-galactosidase; assay: Dose response counterscreen for EBI2 assay utilizing the enzyme, b-galactosidase.; type: functional
Nonstructural protein 1 = Nonstructural protein 1 (Influenza A virus, UniProt Q194T2); type: functional, Influenza A virus (A/California/07/2009(H1N1))
[21] = biological target: T6, Kappa-type opioid receptor (Homo sapiens, UniProt P41145); type: functional
[22] = biological target: T7, RNA-binding protein pos-1 (Caenorhabditis elegans, UniProt G5EF15); assay: inhibitors of POS-1/mex-3 RNA binding, dose response, biochemical, fluorescence polarization (AID 1964);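 further: purified POS-1 fused to maltose binding protein made in E. coli; potency of compounds blocking POS-1 binding to fluorescent RNA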
T7 sequence (G5EF15 whole entry): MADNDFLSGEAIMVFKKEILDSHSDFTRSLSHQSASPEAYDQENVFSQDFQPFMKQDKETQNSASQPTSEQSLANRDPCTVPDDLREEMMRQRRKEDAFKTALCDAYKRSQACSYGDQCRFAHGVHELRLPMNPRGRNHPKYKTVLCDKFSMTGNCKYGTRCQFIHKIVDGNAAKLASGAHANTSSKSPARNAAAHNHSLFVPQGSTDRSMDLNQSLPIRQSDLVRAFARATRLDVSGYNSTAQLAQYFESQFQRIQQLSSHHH

BJ [23] = assay: cytotoxicity toward Ras-transformed BJeLR fibroblasts, dose response, cell-based, alamar blue fluorescence, cherrypicked samples (AID 2631); type: functional; conditions: Homo sapiens;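 further: confirmatory dose-response assay in RAS-dependent BJ fibroblasts engineered with TERT, LT and ST, with cytotoxicity read by fluorescence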
[24] = biological target: T6, Kappa-type opioid receptor; type: functional; remark: listed apart in the source

T5 sequence (Q8VNN2 whole entry): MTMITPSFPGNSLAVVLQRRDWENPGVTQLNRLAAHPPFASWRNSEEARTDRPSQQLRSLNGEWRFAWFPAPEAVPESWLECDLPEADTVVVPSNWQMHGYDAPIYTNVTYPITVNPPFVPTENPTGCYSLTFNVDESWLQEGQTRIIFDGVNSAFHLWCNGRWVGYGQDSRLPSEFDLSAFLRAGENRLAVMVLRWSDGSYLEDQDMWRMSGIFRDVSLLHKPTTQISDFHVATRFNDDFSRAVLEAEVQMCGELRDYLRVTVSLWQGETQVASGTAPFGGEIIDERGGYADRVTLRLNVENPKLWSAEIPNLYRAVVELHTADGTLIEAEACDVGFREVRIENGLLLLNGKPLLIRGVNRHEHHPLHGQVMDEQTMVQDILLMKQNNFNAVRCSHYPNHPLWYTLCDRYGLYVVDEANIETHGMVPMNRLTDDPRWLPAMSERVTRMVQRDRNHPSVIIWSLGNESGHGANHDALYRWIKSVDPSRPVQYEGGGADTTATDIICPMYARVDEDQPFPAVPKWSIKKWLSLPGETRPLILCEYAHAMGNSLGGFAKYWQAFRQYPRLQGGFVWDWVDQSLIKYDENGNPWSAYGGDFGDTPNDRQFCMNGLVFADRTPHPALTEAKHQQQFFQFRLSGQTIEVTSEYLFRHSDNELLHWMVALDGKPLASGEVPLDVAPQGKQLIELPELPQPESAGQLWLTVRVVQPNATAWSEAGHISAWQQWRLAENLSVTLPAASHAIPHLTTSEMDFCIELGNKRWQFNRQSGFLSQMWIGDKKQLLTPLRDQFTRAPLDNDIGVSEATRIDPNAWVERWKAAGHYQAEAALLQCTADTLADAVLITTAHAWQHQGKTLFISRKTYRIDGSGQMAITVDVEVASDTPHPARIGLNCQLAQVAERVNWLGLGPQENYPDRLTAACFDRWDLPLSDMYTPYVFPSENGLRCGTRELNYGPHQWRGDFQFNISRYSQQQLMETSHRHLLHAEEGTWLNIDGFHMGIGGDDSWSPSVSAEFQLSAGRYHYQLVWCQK
Sequence of Ephrin type-A receptor 4 (Q03137 whole entry): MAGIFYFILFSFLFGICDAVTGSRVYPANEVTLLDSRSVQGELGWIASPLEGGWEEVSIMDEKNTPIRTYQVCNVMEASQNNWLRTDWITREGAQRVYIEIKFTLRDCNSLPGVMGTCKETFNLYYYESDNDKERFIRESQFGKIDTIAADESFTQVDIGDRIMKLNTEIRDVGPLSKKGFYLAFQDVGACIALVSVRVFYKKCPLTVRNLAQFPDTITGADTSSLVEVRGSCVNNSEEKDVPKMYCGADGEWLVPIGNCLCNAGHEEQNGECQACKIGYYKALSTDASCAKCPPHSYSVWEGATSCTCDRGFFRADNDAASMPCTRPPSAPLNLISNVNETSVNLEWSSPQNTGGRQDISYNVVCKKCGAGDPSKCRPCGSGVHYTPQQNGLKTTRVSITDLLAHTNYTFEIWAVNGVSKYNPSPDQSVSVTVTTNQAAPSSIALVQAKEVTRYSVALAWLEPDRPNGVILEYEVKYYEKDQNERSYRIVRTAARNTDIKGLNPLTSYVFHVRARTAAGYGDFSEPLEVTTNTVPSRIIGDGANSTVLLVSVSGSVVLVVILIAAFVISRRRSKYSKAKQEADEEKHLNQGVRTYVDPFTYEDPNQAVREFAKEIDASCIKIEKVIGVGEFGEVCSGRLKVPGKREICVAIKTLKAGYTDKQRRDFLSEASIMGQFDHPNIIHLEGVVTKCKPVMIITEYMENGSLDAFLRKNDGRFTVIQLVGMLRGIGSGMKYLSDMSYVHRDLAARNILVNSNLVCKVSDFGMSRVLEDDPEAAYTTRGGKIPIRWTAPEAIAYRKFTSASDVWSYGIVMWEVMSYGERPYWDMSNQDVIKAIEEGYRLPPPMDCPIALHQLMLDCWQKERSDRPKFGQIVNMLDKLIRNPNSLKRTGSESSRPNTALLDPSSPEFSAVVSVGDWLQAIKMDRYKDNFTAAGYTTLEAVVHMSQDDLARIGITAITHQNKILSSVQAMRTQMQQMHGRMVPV
T6 sequence (P41145 whole entry, the tested form may be a part): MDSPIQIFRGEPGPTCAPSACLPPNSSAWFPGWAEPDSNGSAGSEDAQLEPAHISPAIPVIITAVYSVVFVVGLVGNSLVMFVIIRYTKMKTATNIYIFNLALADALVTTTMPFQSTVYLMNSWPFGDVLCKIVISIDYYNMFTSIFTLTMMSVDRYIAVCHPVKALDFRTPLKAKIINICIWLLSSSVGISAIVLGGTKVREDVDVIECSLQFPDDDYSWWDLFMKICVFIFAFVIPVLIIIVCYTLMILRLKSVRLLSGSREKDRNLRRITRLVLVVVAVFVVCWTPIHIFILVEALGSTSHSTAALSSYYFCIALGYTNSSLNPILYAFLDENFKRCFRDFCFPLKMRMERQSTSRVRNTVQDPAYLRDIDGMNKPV
Sequence of Potassium voltage-gated channel subfamily KQT member 2 (O88943 whole entry W236L): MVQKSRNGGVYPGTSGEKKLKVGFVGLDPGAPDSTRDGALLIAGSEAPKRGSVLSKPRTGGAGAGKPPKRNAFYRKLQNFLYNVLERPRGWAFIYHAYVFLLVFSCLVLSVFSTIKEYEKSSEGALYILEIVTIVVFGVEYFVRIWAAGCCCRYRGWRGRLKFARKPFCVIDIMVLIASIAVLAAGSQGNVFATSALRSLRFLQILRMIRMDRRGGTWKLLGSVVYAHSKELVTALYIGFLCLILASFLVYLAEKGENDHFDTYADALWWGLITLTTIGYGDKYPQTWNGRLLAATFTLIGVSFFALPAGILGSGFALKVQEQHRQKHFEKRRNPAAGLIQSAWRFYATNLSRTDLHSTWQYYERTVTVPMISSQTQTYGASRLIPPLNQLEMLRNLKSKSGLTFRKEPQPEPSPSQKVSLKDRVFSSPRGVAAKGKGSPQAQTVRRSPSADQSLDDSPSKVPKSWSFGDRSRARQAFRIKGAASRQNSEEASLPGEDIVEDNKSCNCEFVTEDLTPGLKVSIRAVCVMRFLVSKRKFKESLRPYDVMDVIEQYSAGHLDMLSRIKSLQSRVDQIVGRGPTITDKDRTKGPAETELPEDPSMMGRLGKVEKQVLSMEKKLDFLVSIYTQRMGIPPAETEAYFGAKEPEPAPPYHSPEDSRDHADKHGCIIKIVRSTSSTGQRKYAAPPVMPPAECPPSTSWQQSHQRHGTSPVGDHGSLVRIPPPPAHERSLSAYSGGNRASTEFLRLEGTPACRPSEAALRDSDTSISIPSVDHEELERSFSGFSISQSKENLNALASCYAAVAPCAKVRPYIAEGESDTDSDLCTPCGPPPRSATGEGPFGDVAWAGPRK
Sequence of Nonstructural protein 1 (Q194T2 whole entry): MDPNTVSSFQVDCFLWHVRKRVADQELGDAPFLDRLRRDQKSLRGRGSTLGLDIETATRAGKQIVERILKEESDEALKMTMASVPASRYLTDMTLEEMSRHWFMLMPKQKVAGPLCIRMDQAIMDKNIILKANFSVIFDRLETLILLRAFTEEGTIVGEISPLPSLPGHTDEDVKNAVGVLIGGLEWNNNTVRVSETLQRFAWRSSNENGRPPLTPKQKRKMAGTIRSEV
Sequence of Genome polyprotein (P29990 2492-3391 limits assumed): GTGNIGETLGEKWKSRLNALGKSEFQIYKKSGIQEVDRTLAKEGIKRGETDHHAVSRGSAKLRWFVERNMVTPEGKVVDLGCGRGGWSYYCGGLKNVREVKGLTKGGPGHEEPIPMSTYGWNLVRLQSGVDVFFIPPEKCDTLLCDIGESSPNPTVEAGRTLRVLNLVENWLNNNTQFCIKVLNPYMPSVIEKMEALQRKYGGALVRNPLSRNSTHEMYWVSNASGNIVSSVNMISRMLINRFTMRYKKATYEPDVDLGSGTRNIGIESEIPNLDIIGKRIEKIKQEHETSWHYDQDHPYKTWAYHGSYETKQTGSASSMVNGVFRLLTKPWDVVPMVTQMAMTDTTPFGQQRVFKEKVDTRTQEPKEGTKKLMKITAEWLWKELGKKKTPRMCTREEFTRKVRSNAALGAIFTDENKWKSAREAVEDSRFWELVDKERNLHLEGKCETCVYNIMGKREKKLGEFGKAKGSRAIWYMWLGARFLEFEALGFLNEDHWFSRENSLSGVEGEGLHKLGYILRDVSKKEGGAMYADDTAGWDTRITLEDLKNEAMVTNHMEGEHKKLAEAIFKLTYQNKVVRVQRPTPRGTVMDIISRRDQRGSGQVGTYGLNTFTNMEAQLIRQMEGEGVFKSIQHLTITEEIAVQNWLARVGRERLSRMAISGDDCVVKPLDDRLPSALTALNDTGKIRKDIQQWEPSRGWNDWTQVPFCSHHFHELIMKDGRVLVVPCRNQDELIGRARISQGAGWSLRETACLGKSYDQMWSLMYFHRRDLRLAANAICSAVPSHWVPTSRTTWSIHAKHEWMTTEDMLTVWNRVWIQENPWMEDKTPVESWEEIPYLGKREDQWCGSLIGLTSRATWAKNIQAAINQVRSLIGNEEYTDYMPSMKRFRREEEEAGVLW
Sequence of Cytochrome P450 3A4 (P08684 whole entry): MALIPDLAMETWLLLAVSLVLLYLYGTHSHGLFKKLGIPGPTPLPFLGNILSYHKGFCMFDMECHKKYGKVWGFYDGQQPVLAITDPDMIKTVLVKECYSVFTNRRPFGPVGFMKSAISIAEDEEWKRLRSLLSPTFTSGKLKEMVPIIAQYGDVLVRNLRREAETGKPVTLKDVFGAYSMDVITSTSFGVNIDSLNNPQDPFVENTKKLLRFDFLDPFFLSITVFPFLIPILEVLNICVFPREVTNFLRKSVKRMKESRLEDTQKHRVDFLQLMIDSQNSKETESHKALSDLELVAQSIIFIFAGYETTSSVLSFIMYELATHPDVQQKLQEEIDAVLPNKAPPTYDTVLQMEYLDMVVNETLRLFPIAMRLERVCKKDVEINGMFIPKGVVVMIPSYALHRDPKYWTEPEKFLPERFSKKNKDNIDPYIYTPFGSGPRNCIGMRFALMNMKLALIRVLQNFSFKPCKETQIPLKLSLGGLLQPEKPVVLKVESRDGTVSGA

## CC(=O)Nc1ccc(NC2=Nc3ccccc3N3C2=Nc2c(c(C)nn2-c2ccccc2)C3c2ccccc2)cc1 (configuration not stated)
Ephrin type-A receptor 4
  IC50: 16.6 µM (active)

## O=c1cccccc1NN=C1CCCCCC1
[1]
  EC50: 0.446 µM (active)
[2]
  EC50: 0.385 µM (active)
[3]
  EC50: < 0.1 µM (active)
[4]
  EC50: 0.608 µM (active)
H4
  EC50: > 120 µM (not active)

## Cc1oc2cc([N+](=O)[O-])c(O)c([N+](=O)[O-])c2c1C(=O)c1ccc(Cl)cc1
Protein RecA
  EC50: 10.4 µM (active)
[5]
  EC50: 555 µM (active)
[6]
  AC50: 4.12 µM (active)
Genome polyprotein
  IC50: 61.9 µM (active)

## COc1cc(/C=C2\SC(=S)N(Nc3ccccc3)C2=O)cc(OC)c1OC
Cytochrome P450 1A2
  AC50: 7.08 µM (inconclusive)
Cytochrome P450 3A4
  AC50: 15.8 µM (inconclusive)
Ephrin type-A receptor 4
  IC50: 2.64 µM (active)

## O=C(Nc1ccc(Cl)cc1)c1ccc(OCC2CCCO2)cc1 (configuration not stated)
[1]
  EC50: > 12 µM (not active)
[2]
  EC50: 0.301 µM (active)
[4]
  EC50: 0.924 µM (active)

## C/C(=N\Nc1ncnc2sc(C)c(C)c12)c1ccccn1
BJ [7]
  EC50: 0.754 µM (inconclusive)
[8]
  EC50: 46.7 µM (inconclusive)
Beta-galactosidase [9]
  EC50: > 31.5 µM (inactive)
[10]
  EC50: 2.02 µM (inconclusive)
[11]
  AC50: 2.42 µM (active)
[12]
  EC50: 0.378 µM (active)
[13]
  EC50: 0.244 µM (active)
[14]
  EC50: 0.222 µM (active)
[15]
  IC50: 0.0762 µM (active)
[16]
  EC50: < 0.1 µM (active)
cells
  EC50: 0.472 µM (active)
BJ [17]
  EC50: 0.711 µM (inconclusive)
BJ [18]
  EC50: 0.966 µM (inconclusive)
[19]
  EC50: < 0.1 µM (active)
Beta-galactosidase [20]
  IC50: > 80 µM (inactive)
Nonstructural protein 1
  IC50: 19.3 µM (active)
[21]
  IC50: > 31.5 µM (inactive)
[22]
  EC50: 23.3 µM (inconclusive)
BJ [23]
  EC50: < 0.104 µM (active)
[24]
  IC50: > 32 µM

## O=C(Nc1cccc(OC(F)(F)F)c1)c1ccc(Br)o1
[5]
  EC50: 13.8 µM (active)
